This is an account of results in patent publication US9580604B2, “Pentafluorosulfanyl phthalocyanine derivatives and intermediates thereof” (UBE INDUSTRIES, LTD., priority 2012, dated 2017).

Data set [1] in a line: UV/Vis spectra in methylene chloride. The class given is physicochemical. The note with it: for coagulation inhibitory effect / suppression of coagulation: in solution, judged from UV/Vis spectrum; for coagulation inhibitory effect / suppression of coagulation / shift of the peak in the Q band: in words; for λ/nm, absorption peak, 1st peak / λ/nm, absorption peak, 2nd peak / λ/nm, absorption peak, 3rd peak / λ/nm, absorption peak, 4th peak / λ/nm, absorption peak, 5th peak / shift of the peak in the Q band: methylene chloride. The text has this: FIGS. 1 to 4 show the UV/Vis spectra of the inventive phthalocyanine derivatives obtained above in Examples 8 to 11 in methylene chloride.

Data set [2] can be described thus: fluorescence spectra in methylene chloride. The class given is physicochemical. The note with it: for fluorescence quantum yield, tendency in words: methylene chloride. The text has this: FIGS. 6 to 9 show the fluorescence spectra of the inventive phthalocyanine derivatives obtained above in Examples 8 to 11 in methylene chloride.
Data set [3] is described as follows: solubility in an organic solvent (purification by column chromatography). The note with it: result in words.
[4] abbreviates: 1.0 × 10^−4 M + Py, broken line.
Where [5] appears, read: 1.0 × 10^−4 M, solid line (no pyridine).
[6] abbreviates: CH2C12, solid line (no pyridine).
Where [7] appears, read: CH2C12—Py, broken line (in the presence of pyridine).

Take “tetrakis(pentafluorosulfanyl)zinc phthalocyanine [Example 8]”: in data set [1], the “coagulation inhibitory effect / suppression of coagulation” value is “superior coagulation inhibitory effect”. In data set [1] (setting [4]), the “λ/nm, absorption peak, 1st peak” value was found to be 333 nm; the “λ/nm, absorption peak, 2nd peak” value was found to be 363 nm; the “λ/nm, absorption peak, 3rd peak” value was 607 nm; the “λ/nm, absorption peak, 4th peak” value came out at 639 nm. Also, in data set [1] (setting [4]), the “λ/nm, absorption peak, 5th peak” value was found to be 671 nm. In data set [1] (setting [5]), the “λ/nm, absorption peak, 1st peak” value worked out at 334 nm; the “λ/nm, absorption peak, 2nd peak” value came out at 365 nm; the “λ/nm, absorption peak, 3rd peak” value was 607 nm; the “λ/nm, absorption peak, 4th peak” value is given as 637 nm. Further, the “λ/nm, absorption peak, 5th peak” value in data set [1] (setting [5]) was 672 nm. Besides, in data set [2] (setting [6]), the “Φf fluorescence quantum yield” value turned out to be 0.55 and the “λem (nm)” value was 676 nm. Besides, the “λem (nm)” value in data set [2] (CH2C12—Py, broken line) came out at 676 nm. The “Φf fluorescence quantum yield” value in data set [2] (setting [7]) is recorded as 0.74.
Turning to “trifluoromethyl phthalocyanine [CF3Pc, reference compound]”, the “solubility in an organic solvent” value in data set [3] was “too poorly soluble in an organic solvent to be purified by column chromatography”. In data set [1] (setting [4]), the “λ/nm, absorption peak, 1st peak” value stood at 334 nm; the “λ/nm, absorption peak, 2nd peak” value came to 371 nm; the “λ/nm, absorption peak, 3rd peak” value came out at 604 nm; the “λ/nm, absorption peak, 4th peak” value came to 628 nm. Moreover, in data set [1] (setting [4]), the “λ/nm, absorption peak, 5th peak” value was determined as 669 nm. Moreover, in data set [1] (setting [5]), the “λ/nm, absorption peak, 1st peak” value is recorded as 334 nm; the “λ/nm, absorption peak, 4th peak” value turned out to be 626 nm; the “λ/nm, absorption peak, 5th peak” value amounted to 668 nm. Also, in data set [2] (setting [6]), the “Φf fluorescence quantum yield” value was 0.58 and the “λem (nm)” value is reported as 675 nm. For the same substance, the “λem (nm)” value in data set [2] (CH2C12—Py, broken line) is reported as 674 nm. Also, the “Φf fluorescence quantum yield” value in data set [2] (setting [7]) is reported as 0.76.
As to “α-tetrakis(phenoxy)-β-tetrakis(pentafluorosulfanyl)zinc phthalocyanine [Example 10]”, in data set [1] (setting [4]), the “λ/nm, absorption peak, 1st peak” value is reported as 328 nm; the “λ/nm, absorption peak, 2nd peak” value was 384 nm; the “λ/nm, absorption peak, 3rd peak” value was determined as 624 nm; the “λ/nm, absorption peak, 4th peak” value stood at 694 nm. Also, in data set [1] (setting [5]), the “λ/nm, absorption peak, 1st peak” value was 326 nm; the “λ/nm, absorption peak, 2nd peak” value stood at 384 nm; the “λ/nm, absorption peak, 3rd peak” value was 624 nm; the “λ/nm, absorption peak, 4th peak” value is on record as 694 nm. For the same substance, the “λ/nm, absorption peak, 5th peak” value in data set [1] (setting [5]) stood at 733 nm. Besides, the “shift of the peak in the Q band” value in data set [1] was “significant redshift”. In data set [2] (setting [6]), the “Φf fluorescence quantum yield” value stood at 0.26 and the “λem (nm)” value is recorded as 738 nm. Also, in data set [2] (CH2C12—Py, broken line), the “λem (nm)” value worked out at 704 nm. Moreover, in data set [2] (setting [7]), the “Φf fluorescence quantum yield” value came out at 0.34. Moreover, the “fluorescence quantum yield, tendency in words” value in data set [2] is reported as “decrease in fluorescence quantum yield”.
Take “α-tetrakis(thiophenoxy)-β-tetrakis(pentafluorosulfanyl)zinc phthalocyanine [Example 11]”: in data set [1] (setting [4]), the “λ/nm, absorption peak, 1st peak” value is reported as 334 nm; the “λ/nm, absorption peak, 3rd peak” value turned out to be 406 nm; the “λ/nm, absorption peak, 4th peak” value is listed as 641 nm; the “λ/nm, absorption peak, 5th peak” value is given as 713 nm. Besides, in data set [1] (setting [5]), the “λ/nm, absorption peak, 1st peak” value is given as 333 nm; the “λ/nm, absorption peak, 3rd peak” value was determined as 407 nm; the “λ/nm, absorption peak, 4th peak” value was determined as 641 nm; the “λ/nm, absorption peak, 5th peak” value is listed as 712 nm. Besides, the “shift of the peak in the Q band” value in data set [1] is on record as “significant redshift”. Besides, in data set [2] (setting [6]), the “Φf fluorescence quantum yield” value was found to be 0.24 and the “λem (nm)” value is 721 nm. Also, the “λem (nm)” value in data set [2] (CH2C12—Py, broken line) was 723 nm. The “Φf fluorescence quantum yield” value in data set [2] (setting [7]) was determined as 0.34. Further, the “fluorescence quantum yield, tendency in words” value in data set [2] is on record as “decrease in fluorescence quantum yield”.
For “α-tetrakis(trifluoromethyl)-β-tetrakis(pentafluorosulfanyl)zinc phthalocyanine [Example 9]”, the “coagulation inhibitory effect / suppression of coagulation” value in data set [1] was “superior in solubility and suppression of coagulation to the phthalocyanine obtained in Example 8”. In data set [1] (setting [4]), the “λ/nm, absorption peak, 1st peak” value is recorded as 332 nm; the “λ/nm, absorption peak, 2nd peak” value worked out at 380 nm; the “λ/nm, absorption peak, 3rd peak” value is 597 nm; the “λ/nm, absorption peak, 4th peak” value was determined as 628 nm. In data set [1] (setting [4]), the “λ/nm, absorption peak, 5th peak” value is listed as 659 nm. In data set [1] (setting [5]), the “λ/nm, absorption peak, 1st peak” value came out at 330 nm; the “λ/nm, absorption peak, 2nd peak” value worked out at 380 nm; the “λ/nm, absorption peak, 3rd peak” value amounted to 598 nm; the “λ/nm, absorption peak, 4th peak” value was found to be 629 nm. Also, in data set [1] (setting [5]), the “λ/nm, absorption peak, 5th peak” value is listed as 662 nm. Also, in data set [2] (setting [6]), the “Φf fluorescence quantum yield” value amounted to 0.52 and the “λem (nm)” value was 669 nm. Besides, the “λem (nm)” value in data set [2] (CH2C12—Py, broken line) was 667 nm. Moreover, the “Φf fluorescence quantum yield” value in data set [2] (setting [7]) was determined as 0.84.
